Laboratory results reported in ChEMBL document CHEMBL1136832, “Synthesis of 7-chloro-2,3-dihydro-2-[1-(pyridinyl)alkyl]-pyridazino[4,5-b]quinoline-1,4,10(5H)-triones as NMDA glycine-site antagonists” (Bioorg Med Chem Lett, 2003).

Assays:
Caco-2 = settings: Homo sapiens
Description: Cellular permeability in Caco-2 cells.

physchem = settings: buffer, pH 7.4
Glutamate NMDA receptor = assay type: cell membranes, Membrane
Description: Affinity for glycine site of NMDA receptor on rat brain membranes by displacement of [3H]- MDL 105,519.

[1] = Oral bioavailability in rat; settings: in vivo

SMILES | solubility (physchem) | Ki (Glutamate NMDA receptor) | bioavailability [1] | Permeability (Caco-2)
CC(c1ccncc1)n1[nH]c(=O)c2[nH]c3cc(Cl)ccc3c(=O)c2c1=O.CS(=O)(=O)O (stereo not drawn) | – | – | 30% | 5.8e-06
CCC(c1ccncc1)n1[nH]c(=O)c2[nH]c3cc(Cl)ccc3c(=O)c2c1=O.CS(=O)(=O)O (stereo not drawn) | > 200 µg/mL | – | 17% | 1.1e-05
CCCCC(c1ccccn1)n1[nH]c(=O)c2nc3cc(Cl)ccc3c(O)c2c1=O.CS(=O)(=O)O (stereo not drawn) | > 220 µg/mL | > 10 µM | – | 1.6e-05
CS(=O)(=O)O.O=c1[nH]n(C(c2ccccc2)c2ccncc2)c(=O)c2c(O)c3ccc(Cl)cc3nc12 (stereo not drawn) | 130 µg/mL | > 10 µM | – | 4e-06
CC(C)CC(c1ccccn1)n1[nH]c(=O)c2nc3cc(Cl)ccc3c(O)c2c1=O.CS(=O)(=O)O (stereo not drawn) | > 130 µg/mL | > 10 µM | – | 9.1e-06
O=c1[nH]n(Cc2ccncc2)c(=O)c2c(=O)c3ccc(Cl)cc3[nH]c12 | – | – | 5% | 2e-07
CS(=O)(=O)O.O=c1[nH]n(C(c2ccccn2)C2CCCC2)c(=O)c2c(O)c3ccc(Cl)cc3nc12 (stereo not drawn) | > 170 µg/mL | > 10 µM | – | 5.6e-06
CC(C)CC(c1ccncc1)n1[nH]c(=O)c2nc3cc(Cl)ccc3c(O)c2c1=O.CS(=O)(=O)O (stereo not drawn) | > 170 µg/mL | 5.23 µM | – | 1.1e-05

Further compounds by falling Ki (Glutamate NMDA receptor), results first:

solubility (physchem) | Ki (Glutamate NMDA receptor) | bioavailability [1] | SMILES | Permeability (Caco-2)
> 220 µg/mL | 4.34 µM | – | CCCC(c1ccncc1)n1[nH]c(=O)c2nc3cc(Cl)ccc3c(O)c2c1=O.CS(=O)(=O)O (stereo not drawn) | 1.6e-05
– | 2.42 µM | – | CC(c1cc[n+]([O-])cc1)n1[nH]c(=O)c2nc3cc(Cl)ccc3c(O)c2c1=O (stereo not drawn) | –
– | 2.36 µM | – | CCC(c1ccccn1)n1[nH]c(=O)c2nc3cc(Cl)ccc3c(O)c2c1=O (stereo not drawn) | –
490 µg/mL | 0.996 µM | – | CS(=O)(=O)O.O=c1[nH]n(C(c2ccccn2)C2CC2)c(=O)c2c(O)c3ccc(Cl)cc3nc12 (stereo not drawn) | 9.8e-06
> 160 µg/mL | 0.439 µM | – | O=c1[nH]n(Cc2cc[n+]([O-])cc2)c(=O)c2c(O)c3ccc(Cl)cc3nc12 | 5e-07
